# In PMC6297231 (Nature Communications, 2018):
# pEC50: −log10 of the molar value.
# Tests used:
# [1] = test system: Sudhl6; assay: Cell viability assay; assay type: cell-based; conditions: Homo sapiens, SU-DHL-6, 24 h; Sudhl6 (NHL); read-out: AZD5991 24h GI50
# [2] = test system: Namalwa; assay: Cell viability assay; assay type: cell-based; conditions: 24 h; Namalwa (NHL); read-out: AZD5991 24h GI50
# [3] = test system: G361; assay: Cell viability assay; assay type: cell-based; conditions: Homo sapiens, G-361, 24 h; G361 (Skin); read-out: AZD5991 24h GI50
# [4] = test system: Sudhl2; assay: Cell viability assay; assay type: cell-based; conditions: Homo sapiens, SU-DHL-2, 24 h; Sudhl2 (NHL); read-out: AZD5991 24h GI50
# [5] = test system: HCC1187; assay: Cell viability assay; assay type: cell-based; conditions: Homo sapiens, 24 h; HCC1187 (Breast); read-out: AZD5991 24h GI50
# [6] = test system: A253; assay: Cell viability assay; assay type: cell-based; conditions: Homo sapiens, 24 h; A253 (Others); read-out: AZD5991 24h GI50
# [7] = test system: Sudhl10; assay: Cell viability assay; assay type: cell-based; conditions: Homo sapiens, SU-DHL10, 24 h; Sudhl10 (NHL); read-out: AZD5991 24h GI50
# [8] = test system: RT4; assay: Cell viability assay; assay type: cell-based; conditions: Homo sapiens, RT-4, 24 h; RT4 (Urology); read-out: AZD5991 24h GI50
# [9] = test system: Kasumi3; assay: Cell viability assay; assay type: cell-based; conditions: Kasumi-3, 24 h; Kasumi3 (AML); read-out: AZD5991 24h GI50
# [10] = test system: H196; assay: Cell viability assay; assay type: cell-based; conditions: NCI-H196, 24 h; H196 (Lung); read-out: AZD5991 24h GI50
# [11] = test system: H2122; assay: Cell viability assay; assay type: cell-based; conditions: Homo sapiens, NCI-H2122, 24 h; H2122 (Lung); read-out: AZD5991 24h GI50
# [12] = test system: MDAMB468; assay: Cell viability assay; assay type: cell-based; conditions: Homo sapiens, MDA-MB-468, 24 h; MDAMB468 (Breast); read-out: AZD5991 24h GI50
# [13] = test system: THP-1; assay: Cell viability assay; assay type: cell-based; conditions: Homo sapiens, 24 h; THP-1 (AML); read-out: AZD5991 24h GI50
# [14] = test system: OCILY7; assay: cells; conditions: Homo sapiens, OCI-Ly7, 6 h, read-out: AZD5991 6h EC50
# Experimental: (§1) Cells were plated at 3000 cells/well in 384-well white plates in corresponding cell growth media. […] Caspase-3/7 activation was subsequently determined using a Caspase-Glo 3/7 Reagent (Promega) and viability was assayed using the CellTiter-Glo Reagent (Promega) as described in manufacturer’s instructions. Dose–response curves for caspase-3/7 activation and viability were plotted and analyzed (including EC50 and GI50 determination) using GraphPad Prism. Percentage of caspase activation was calculated against the maximum caspase activation value (100%) obtained with a proprietary cell kill control.
# [15] = test system: Sudhl2; assay: cells; conditions: Homo sapiens, SU-DHL-2, 6 h, read-out: AZD5991 6h EC50
# Experimental: as §1
# [16] = test system: SNU16; assay: cells; conditions: Homo sapiens, SNU-16, 6 h, read-out: AZD5991 6h EC50
# Experimental: as §1
# [17] = test system: HBL1; assay: cells; conditions: HBL1, 6 h, read-out: AZD5991 6h EC50
# Experimental: as §1
# [18] = test system: SBC5; assay: cells; conditions: Homo sapiens, SBC-5, 6 h, read-out: AZD5991 6h EC50
# Experimental: as §1
# [19] = test system: MDAMB231; assay: Cell viability assay; assay type: cell-based; conditions: Homo sapiens, MDA-MB-231, 24 h; MDAMB231 (Breast); read-out: AZD5991 24h GI50
# [20] = test system: Raji; assay: Cell viability assay; assay type: cell-based; conditions: Homo sapiens, 24 h; Raji (NHL); read-out: AZD5991 24h GI50
# [21] = test system: Daudi; assay: Cell viability assay; assay type: cell-based; conditions: Homo sapiens, 24 h; Daudi (NHL); read-out: AZD5991 24h GI50
# [22] = test system: OVCAR3; assay: Cell viability assay; assay type: cell-based; conditions: Homo sapiens, OVCAR-3, 24 h; OVCAR3 (Others); read-out: AZD5991 24h GI50
# [23] = test system: OCIAML5; assay: Cell viability assay; assay type: cell-based; conditions: Homo sapiens, OCI-AML-5, 24 h, read-out: AZD5991 24h GI50
# [24] = test system: OV90; assay: Cell viability assay; assay type: cell-based; conditions: Homo sapiens, OV-90, 24 h; OV90 (Others); read-out: AZD5991 24h GI50
# [25] = test system: JJN3; assay: Cell viability assay; assay type: cell-based; conditions: Homo sapiens, JJN-3, 24 h; JJN3 (MM); read-out: AZD5991 24h GI50
# [26] = test system: T47D; assay: Cell viability assay; assay type: cell-based; conditions: Homo sapiens, 24 h; T47D (Breast); read-out: AZD5991 24h GI50
# [27] = test system: GIST 430/654; assay: Cell viability assay; assay type: cell-based; conditions: 24 h; GIST 430/654 (GI); read-out: AZD5991 24h GI50
# [28] = test system: SNU1197; assay: Cell viability assay; assay type: cell-based; conditions: 24 h; SNU1197 (GI); read-out: AZD5991 24h GI50
# [29] = test system: EOL1; assay: Cell viability assay; assay type: cell-based; conditions: Homo sapiens, 24 h; EOL1 (AML); read-out: AZD5991 24h GI50
# [30] = test system: SKMEL2; assay: Cell viability assay; assay type: cell-based; conditions: Homo sapiens, SK-MEL-2, 24 h; SKMEL2 (Skin); read-out: AZD5991 24h GI50
smiles,measurement,setting,value
"Cc1c2c(nn1C)CSCc1cc(n(C)n1)CSc1cc(c3ccccc3c1)OCCCc1c(C(=O)O)n(C)c3c-2c(Cl)ccc13 (atropisomer, axis not shown; (Ra)) [(Ra)-7]",GI50,[1],15 nM
same,GI50,[2],39 nM
same,GI50,[3],404 nM
same,GI50,[4],585 nM
same,GI50,[5],233 nM
same,GI50,[6],> 30000 nM
same,GI50,[7],10 nM
same,GI50,[8],2400 nM
same,GI50,[9],172 nM
same,GI50,[10],> 30000 nM
same,GI50,[11],18700 nM
same,GI50,[12],540 nM
same,GI50,[13],76 nM
same,pEC50,[14],7.44
same,pEC50,[15],6.56
same,pEC50,[16],6.74
same,pEC50,[17],4.59
same,pEC50,[18],5.95
same,GI50,[19],> 30000 nM
same,GI50,[20],167 nM
same,GI50,[21],133 nM
same,GI50,[22],> 30000 nM
same,GI50,[23],11000 nM
same,GI50,[24],22100 nM
same,GI50,[25],255 nM
same,GI50,[26],> 30000 nM
same,GI50,[27],1620 nM
same,GI50,[28],27300 nM
same,GI50,[29],12 nM
same,GI50,[30],9310 nM
